Test results published in PubChem BioAssay (NCI).
“And” between values parts separate entries of the source, which are not always exact repeats. Identical values can stand only once.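 48-hour exposure; five concentrations; linearly interpolated endpoints. GI50 = concentration required for 50% inhibition of growth. TGI marks complete inhibition of growth.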

Experiments:
Assay in all cases: growth of human tumour cells (NCI), 48 h; in the data active = GI50 below about 0.43 µM; inactive = the rest
[1] = tested on: M14 melanoma
[2] = tested on: LOX IMVI melanoma
[3] = tested on: HOP-62 NSCLC
[4] = tested on: NCI/ADR-RES ovarian
[5] = tested on: HCT-15 colon
[6] = tested on: MDA-MB-231 breast
[7] = tested on: EKVX NSCLC
[8] = tested on: COLO 205 colon
[9] = tested on: SK-MEL-2 melanoma
[10] = tested on: RPMI-8226 leukemia

CN(N=O)C(=O)N[C@@H](C=O)[C@@H](O)[C@H](O)[C@H](O)CO
> 750 µM: TGI [1] | TGI [2] | TGI [3] | TGI [4] | TGI [6] | TGI [7] | TGI [9]
640 µM and > 750 µM: TGI [8]
inactive: GI50 [2] 722 µM and > 750 µM | GI50 [3] > 750 µM | GI50 [5] > 750 µM | GI50 [7] > 750 µM | GI50 [8] > 750 µM | GI50 [9] > 750 µM | GI50 [10] > 750 µM
666 µM and > 750 µM: TGI [5]
612 µM and > 750 µM: TGI [10]

CC(=O)O[C@H](C[C@H](C(C)C)N(C)C(=O)[C@@H](NC(=O)[C@H]1CCCCN1C)C(C)C)c1nc(C(=O)N[C@@H](Cc2ccccc2)C[C@H](C)C(=O)O)c(C(C)C)s1
10.5 µM: TGI [2]
> 15.5 µM: TGI [6]
19.2 µM: TGI [9]
active: GI50 [1] < 0.00333 µM | GI50 [2] < 0.00333 µM | GI50 [3] < 0.00333 µM | GI50 [4] 0.0691 µM | GI50 [5] 0.0101 µM | GI50 [6] < 0.00333 µM | GI50 [7] 0.00336 µM | GI50 [8] < 0.00333 µM | GI50 [9] < 0.00333 µM | GI50 [10] < 0.00333 µM
> 22.6 µM: TGI [10]
< 0.033 µM: TGI [8]
0.161 µM: TGI [1]
> 33.3 µM: TGI [3] | TGI [5] | TGI [7]

C/C(=N\N=C(\[Se])N1CCN(c2ccccn2)CC1)c1ccccn1
0.486 µM: TGI [10]
17.3 µM: TGI [5]
17.5 µM: TGI [6]
0.0937 µM and 0.559 µM: GI50 [7]
2.36 µM: TGI [9]
16.7 µM: TGI [1]
9.7 µM: TGI [7]
0.0358 µM: TGI [8]
active: GI50 [1] 0.0254 µM | GI50 [2] 0.00443 µM | GI50 [5] 0.0118 µM | GI50 [8] 0.00449 µM | GI50 [10] 0.00477 µM
18.6 µM: TGI [4]
17.6 µM: TGI [2]

COc1ccc(C2=NN(C(=O)c3cc(OC)c(OC)c(OC)c3)C(c3ccc(Cl)cc3)C2)cc1OC (centres undefined)
> 100 µM: TGI [1] | TGI [2] | TGI [5] | TGI [7] | TGI [8] | TGI [10]
> 68.3 µM: TGI [6]
32 µM: TGI [3]
63.6 µM: TGI [9]
inactive: GI50 [1] 4.66 µM | GI50 [2] 3.63 µM | GI50 [3] 5.24 µM | GI50 [4] 1.05 µM | GI50 [5] 1.79 µM | GI50 [6] 2.27 µM | GI50 [7] 5.86 µM | GI50 [8] 2.44 µM | GI50 [9] 3.71 µM | GI50 [10] 0.535 µM

COC(=O)[C@]12CC[C@@H](C)[C@H](C)[C@@H]1C1=CC[C@@H]3[C@@]4(C)C(C=O)=C[C@@](C)(COC(=O)c5ccco5)[C@@H]4C(=O)C[C@@]3(C)[C@]1(C)CC2
0.0971 µM: TGI [8]
active: GI50 [1] 0.286 µM | GI50 [8] 0.0314 µM
2.78 µM: TGI [9]
6.68 µM: TGI [10]
> 100 µM: TGI [1] | TGI [3] | TGI [4] | TGI [5] | TGI [6] | TGI [7]
31.2 µM: TGI [2]
inactive: GI50 [2] 4.42 µM | GI50 [3] 18.9 µM | GI50 [4] 4.82 µM | GI50 [5] 3.96 µM | GI50 [6] 4.97 µM | GI50 [7] 4.64 µM | GI50 [9] 0.5 µM | GI50 [10] 2.06 µM

C/C(=C\C1=C(Cl)C(=O)c2ccccc2C1=O)C(=O)O
37.2 µM: TGI [7]
31.7 µM: TGI [1]
46.8 µM: TGI [4]
33.8 µM: TGI [6]
inactive: GI50 [1] 17.7 µM | GI50 [2] 17.6 µM | GI50 [3] 18.8 µM | GI50 [4] 21.1 µM | GI50 [5] 18.2 µM | GI50 [6] 18.6 µM | GI50 [7] 18.6 µM | GI50 [8] 18.7 µM | GI50 [9] 18.1 µM | GI50 [10] 20.2 µM
36.5 µM: TGI [5]
33.4 µM: TGI [9]
46.5 µM: TGI [10]
38.6 µM: TGI [2]
33.7 µM: TGI [3]
34 µM: TGI [8]

Cc1cccc(C(=O)/C=C/SC(=NC#N)SCc2ccccc2)c1
41.5 µM: TGI [6]
45.4 µM: TGI [3]
64.5 µM: TGI [4]
> 100 µM: TGI [2] | TGI [5] | TGI [8] | TGI [9] | TGI [10]
59.1 µM: TGI [1]
inactive: GI50 [1] 24.8 µM | GI50 [2] 26.9 µM | GI50 [3] 23.2 µM | GI50 [4] 24.4 µM | GI50 [5] 39.1 µM | GI50 [6] 20 µM | GI50 [7] 28 µM | GI50 [8] 33.6 µM | GI50 [9] 48.5 µM | GI50 [10] 4.06 µM
63.2 µM: TGI [7]

CCN1C(NN)=NS(=O)(=O)c2ccccc21
> 100 µM: TGI [1] | TGI [2] | TGI [3] | TGI [4] | TGI [5] | TGI [6] | TGI [7] | TGI [8] | TGI [9]

Cc1ccc(Nc2n[nH]c(=S)s2)cc1
> 100 µM: TGI [1] | TGI [2] | TGI [3] | TGI [4] | TGI [5] | TGI [6] | TGI [7] | TGI [8] | TGI [10]

O=C1C2=Nc3ccccc3C(O)N2c2ccccc21 (centres undefined)
> 100 µM: TGI [1] | TGI [3] | TGI [4] | TGI [5] | TGI [6] | TGI [7] | TGI [8] | TGI [10]
13.1 µM: TGI [2]

C/C1=C/C2=CC(C)C[C@@H]2C(=O)[C@]2(C)C(=O)CC(C)(C)[C@H]2CC1=O (some centres undefined)
> 50 µM: TGI [1] | TGI [2] | TGI [4] | TGI [5] | TGI [6] | TGI [7] | TGI [8] | TGI [9] | TGI [10]

COC(=O)c1ccc(NC(=O)Nc2ccc3oc(=O)c4ccccc4c3c2)cc1
39.6 µM: TGI [3]
inactive: GI50 [1] 31.8 µM | GI50 [2] 39.2 µM | GI50 [3] 17.8 µM | GI50 [4] 41.7 µM | GI50 [5] > 100 µM | GI50 [6] 23.7 µM | GI50 [7] > 100 µM | GI50 [8] 32.5 µM | GI50 [10] 20.3 µM
> 100 µM: TGI [1] | TGI [2] | TGI [4] | TGI [5] | TGI [7] | TGI [8] | TGI [10]
55.9 µM: TGI [6]

OCC1OC(OCC(O)C(O)C(O)C(/C=N/Nc2ccccc2)=N/Nc2ccccc2)C(O)C(O)C1O (centres undefined)
> 100 µM: TGI [1] | TGI [2] | TGI [3] | TGI [4] | TGI [5] | TGI [6] | TGI [7] | TGI [8] | TGI [10]

Cc1cc(C2=NNC(=O)Cc3cc4c(cc32)OCCO4)cc(C)c1N
inactive: GI50 [1] 2.17 µM | GI50 [2] 3.18 µM | GI50 [3] 2.72 µM | GI50 [4] 0.882 µM | GI50 [5] 1.25 µM | GI50 [6] 6.25 µM | GI50 [7] 29.7 µM | GI50 [8] 1.55 µM | GI50 [9] 3.42 µM
11.2 µM: TGI [8]
25.8 µM: TGI [4]
> 100 µM: TGI [1] | TGI [2] | TGI [3] | TGI [5] | TGI [6] | TGI [7] | TGI [9]

Oc1ccc(O)c(-c2cc(-c3ccccc3)nn2-c2ccccc2)c1
29.7 µM: TGI [4]
25.4 µM: TGI [1]
32.3 µM: TGI [3]
42.6 µM: TGI [5]
25 µM: TGI [2]
inactive: GI50 [1] 12.4 µM | GI50 [2] 10.2 µM | GI50 [3] 16.8 µM | GI50 [4] 11.5 µM | GI50 [5] 17 µM | GI50 [6] 30.3 µM | GI50 [7] 16.9 µM | GI50 [8] 24.9 µM | GI50 [9] 34 µM
37.7 µM: TGI [7]
> 100 µM: TGI [6] | TGI [8] | TGI [9]
